Data taken from ChEMBL document CHEMBL3507680, “University of Dundee, Gates Library screen for HepG2 cell viability”.

Assay: Human HepG2 cell viability assay in 384 well format
Type: toxicity, cell-based
Parameters: dose 125 nL, time 70.5 hour; concentration not given beside the values
Conditions: HepG2 cells, read-out: Inhibition

Row | Compound | cytotoxicity at 70.5 h [%]
1 | Cc1cccc(N2N=C(C(=O)NC(C)Cc3ccco3)CCC2=O)c1 (centres undefined) | -13.7
2 | Cc1ccc(CN2CCc3c(COC(C)C)nn(C)c3C2)s1 | -9.08
3 | CN(CCc1ccccn1)C(=O)C(c1cccnc1)N1CCOCC1 (centres undefined) | -1.97
4 | CCc1cc(CNC(=O)Nc2cc(F)cc(N3CCCC3)c2)on1 | -11.5
5 | Cc1nc(CN(C)C(=O)CN(C)C)nc2c1CCC(=O)N2CCC(C)C | -0.759
6 | Cn1cnc2c1C(COCC1CC1)CN(Cc1ccsc1)C2 (centres undefined) | 5.05
7 | CC(C)Oc1ncccc1CNC(=O)Nc1ccccn1 | 0.773
8 | CCS(=O)(=O)CC(C)N(C)C(=O)NCCc1cccc(F)c1F (centres undefined) | -5.89
9 | Cc1nccc(-c2cccc(NCC(=O)N3CCOCC3)c2)n1 | -4.16
10 | c1ccc(SCCN2CCN(CCn3cncn3)CC2)cc1 | -22.3
11 | Cc1oncc1C(=O)NCc1cc(=O)n2c(n1)CN(CC1CC1)CCC2 | 17.8
12 | COc1ccc(C(C)NC(=O)C2CCN(S(C)(=O)=O)CC2)cc1C (centres undefined) | -4.77
13 | CC(C)C(CNC(=O)CCn1cncn1)N1CCc2ccccc2C1 (centres undefined) | -6.95
14 | CCn1ncc(S(=O)(=O)N[C@@H]2CCC[C@@H](n3ccnc3)[C@@H]2O)c1C | -2.3
15 | Cc1ccc(Cl)c(CN2CCC3(CC2)C(C(=O)O)CC(=O)N3C)c1F (centres undefined) | -5.82
16 | CC(=O)N1CCCCC12CCCN(Cc1ccco1)C2 (centres undefined) | -14.9
17 | CC(C)CNC(=O)CNc1c(NCc2ccco2)c(=O)c1=O | 0.885
18 | COCCN(CCOC)C(=O)c1ccc(Cn2nc(C)cc2C)cc1 | 7.43
19 | CN1CCN(Cc2cn3c(n2)CN(C(=O)c2ccccn2)CC3)CC1 | -2.89
20 | CN(c1ncccc1C#N)C1CCN(CCc2ccccn2)CC1 | 13.7
21 | COC(C)c1nc(CN2CCNCC2)cs1 (centres undefined) | 0.111
22 | CSCc1cc(F)ccc1CNC(=O)N1CCCC1 | -4.58
23 | CCN1CCO[C@@H]2CN(C(=O)c3ccc4[nH]ccc4c3)CC[C@@H]2C1 | -7.4

Row | Compound | cytotoxicity at 70.5 h [%]
24 | COc1ccc(F)cc1C(C)NC(=O)NCCCn1cncn1 (centres undefined) | -2.2
25 | Cc1nn(C)cc1S(=O)(=O)N[C@@H]1CCC[C@@H](N2CCCC2)[C@@H]1O | -9.32
26 | CC(=O)NCCNC(=O)CN1CCOC(Cn2cc(C)cn2)C1 (centres undefined) | -5.91
27 | CCN1CCN(CCC(=O)NC2CC(c3cccc(Cl)c3)C2)CC1 (centres undefined) | 3.15
28 | Fc1ccc2[nH]c3c(c2c1)CCN1C(c2ccccn2)N2CCC31CC2 (centres undefined) | 19
29 | O=S(=O)(CCCNC1CCc2ncnn2C1)c1ccccc1 (centres undefined) | 23.5
30 | CN(C)c1ccc(C(=O)N2Cc3cnc(C(C)(C)C)nc3C2)cc1 | -2.91
31 | Cc1noc(NS(=O)(=O)c2ccc(Cl)s2)c1C | -0.524
32 | CCS(=O)(=O)N1CCCc2ccc(NC(=O)Cc3ccc(F)cc3)cc21 | 36.7
33 | COCCNC(=O)C1CN(Cc2cccnc2)Cc2ccnn2C1 (centres undefined) | -13.8
34 | CC1=N[C@@]2(CC[C@@H]3CN(CC(C)C)C[C@@H]32)C(=O)N1CC(C)C | -13.7
35 | CCn1ncc2[nH]c(-c3cc4c(cc3OC)OCO4)nc21 | -4.87
36 | COCCO[C@H]1CCN(c2cc(OC)ncn2)[C@H]1Cc1ccncc1 | -1.44
37 | CCc1c(C(=O)N2CCC3(CC(=O)NC3=O)C2)csc1C (centres undefined) | -5.51
38 | COC(=O)CC(NC(=O)c1cccc(N2CCCC2=O)c1)C(=O)OC (centres undefined) | 0.259
39 | O=C1C[C@H]2CC[C@@H](CN1)N2C(=O)CCCc1ccc(Cl)cc1 | -7.24
40 | CC(C)C(C#N)N1CCN(C(=O)c2cc(-c3ccccn3)no2)CC1 (centres undefined) | 3.13
41 | CC1CN(CC(=O)Nc2ccncc2)CCN1Cc1nccn1C (centres undefined) | -0.423
42 | O=C(NCCNc1ncccn1)N1CCSCC1 | -11.7
43 | Cc1cc(N2CCCC(c3nncn3C3CC3)C2)ncn1 (centres undefined) | -2.44
44 | CCC(CC)C(=O)NS(=O)(=O)CCc1ccccc1 | -23.7
45 | CC1CCCN(C(=O)c2ccn(COc3ccccc3)n2)C1 (centres undefined) | 12.9
46 | CN(C(=O)NCc1nccn1CCc1ccccc1)C1CCC1 | 1.68

Row | Compound | cytotoxicity at 70.5 h [%]
47 | COc1cc(NC(=O)NCc2cc(C)oc2C)cc(OC)c1 | -5.36
48 | CC1(C)CN(Cc2csc(CS(C)(=O)=O)n2)Cc2ccccc21 | -0.447
49 | OC1(CNc2ccc(Br)cn2)CCC1 | 16.3
50 | Cc1nn(C)c(C)c1CN(CCO)C(=O)C1COc2ccccc2C1 (centres undefined) | 30
51 | Cc1nn(C)c(Cl)c1C1CCCN1C(=O)c1ccc2c(c1)OCO2 (centres undefined) | -16.9
52 | CCc1cc(NCCS(=O)(=O)N(C)C)nc(N2CCOCC2)n1 | -13.2
53 | CN(Cc1nc2ccccc2c(=O)[nH]1)C[C@@H]1CCCN2CCCC[C@H]12 | -2.89
54 | CC(C)Sc1ccc(C(C)NC(=O)Cn2cccnc2=O)cc1 (centres undefined) | -15.1
55 | CCO[C@@H]1CC[C@H]2[C@H]1OCCN2Cc1ccc(F)cc1 | -16.2
56 | CCOCC1CC2(CCN(Cc3ccccn3)CC2)CO1 (centres undefined) | -3.81
57 | Cc1cnn(CCC(=O)NC2CCc3nc(C)cn3C2)c1 (centres undefined) | -3.94
58 | COCc1noc(CCC(=O)c2ccc3c(c2)OCCO3)n1 | -19.1
59 | CSc1ccc(CNCCS(=O)(=O)N2CCOCC2)cc1 | -3.35
60 | CCS(=O)(=O)N1C[C@@H](c2cc(O)nc(C)n2)[C@H](c2ccccc2F)C1 | 13.7
61 | CC(=O)N1CCCC1C(=O)NCCOc1cccc(F)c1 (centres undefined) | -12.8
62 | O=C(C1CCCC1)N1CCCC1c1nnc2n1CCCCC2 (centres undefined) | 1.94
63 | Cc1ccoc1C(=O)NCC(Cc1ccc(F)cc1)C(N)=O (centres undefined) | -3.51
64 | COc1ccc(-c2ccc(C(=O)NCCCC(N)=O)c(F)c2)c(F)c1 | -3.05
65 | CNC(=O)C1CCCCN1C(=O)c1n[nH]c(=O)c2ccccc12 (centres undefined) | -6.33
66 | CN(C)c1ccc(C(=O)Nc2cnn(Cc3ccccn3)c2)cc1 | -9.41
67 | Cc1csc(CCCNC(C)CC(=O)Nc2ccc(F)cc2)n1 (centres undefined) | 5.43
68 | COCc1cncc2c1CCN(Cc1cccnc1)C2 | -3.24
69 | CCS(=O)(=O)N1CCCC2(CCCN2Cc2cccc(Cl)c2)C1 (centres undefined) | -4.53

Row | Compound | cytotoxicity at 70.5 h [%]
70 | CNc1cncc(C2CCCN2C(=O)c2ccc3oc(C)cc3c2)n1 (centres undefined) | -8.56
71 | CCN(CCC(F)(F)F)S(=O)(=O)c1cccc(F)c1C#N | -4.04
72 | OCCN1CCC(CNCc2cn(-c3ccccc3)nn2)CC1 | -12.5
73 | Nc1c(N2CCOCC2)ncnc1N1CCOCC1 | 0.518
74 | Cc1cnccc1N1CCN(C[C@]2(O)CCCN3CCCC[C@@H]32)CC1 | 4.29
75 | O=S(=O)(c1cccs1)N1CCCn2cnc(CO)c2C1 | -1.4
76 | CCOC(=O)C1CC2(CCOCC2)N2CCC(=O)N12 (centres undefined) | -6.97
77 | COc1cccc2c1OCC(NCCCOc1cccnc1)C2 (centres undefined) | -5.15
78 | Cc1cnc(CN2CCN(C(C)c3nc(C)no3)CC2)cn1 (centres undefined) | 17.2
79 | Cn1nc(C#N)c2c1CN(C(=O)c1ccnnc1)CCC2 | 0.526
80 | COc1cccc(N2CCN(C(=O)C(O)c3ccccc3Cl)CC2=O)c1 (centres undefined) | -4.36
81 | CCC(=O)N1CCc2c(O)nc(C3CCCCN3C(=O)C3CC3)nc2C1 (centres undefined) | -3.59
82 | Cc1csc(C2CCCN(C(=O)Cn3ccccc3=O)C2)n1 (centres undefined) | -3.71
83 | Cc1ccc(-c2nc(CN3CCOCS3(=O)=O)c(C)o2)cc1 | -0.637
84 | Cc1ccccc1C(=O)N1CCCn2nnc(Cn3cccn3)c2C1 | -9.23
85 | COCCC(=O)N1CCCC1c1nc(O)cc(C(C)C)n1 (centres undefined) | -0.774
86 | O=C(NCC(=O)N1CCCC(c2ccccc2)CC1)c1ccoc1 (centres undefined) | 1.06
87 | COCCCN1CC2(CCCCN2C(=O)C2CCCCC2)CC1=O (centres undefined) | -3.42
88 | Cc1ccc(CN(C)C(=O)CNC(C)(C)c2noc(C(C)(C)C)n2)o1 | -0.348
89 | Cc1ccc(CNC(=O)c2nn(C)c3c2CS(=O)(=O)CC3)o1 | -2.5
90 | COc1ccc(CN2C[C@@H](O)[C@](O)(CNC(=O)c3ccccn3)C2)cc1 | -7.06
91 | COCC(O)CNC(=O)c1cc(COc2ccc3c(c2)CCCC3)on1 (centres undefined) | -4.42
92 | O=C(O)c1cc(NS(=O)(=O)c2cccc(Cl)c2F)ccc1Cl | -5.66

Row | Compound | cytotoxicity at 70.5 h [%]
93 | CCN1CCC(CNC(=O)C(c2ccc(F)cc2)N(C)C)(N(C)C)CC1 (centres undefined) | -6.97
94 | Cc1cccnc1Nc1nccc(C2CN(CC(N)=O)C2)n1 | -3.23
95 | CC(Oc1cccc(Cl)c1)C(=O)Nc1cnn(CCN(C)C)c1 (centres undefined) | 23.7
96 | CC(C)CCc1nc(CNCC2CCCN2c2cccnn2)cs1 (centres undefined) | 12.1
97 | Cc1ccc(NC(=O)NCCc2cnn(C)c2)c(N(C)C)n1 | 0.893
98 | Cc1cc(C)cc(CN2CCN(Cc3ccc4nonc4c3)CC2=O)c1 | -0.612
99 | Cc1nnsc1CN1CC[C@@](O)(C2CCC2)[C@H](C)C1 | -7.08
100 | O=C(Cc1cc(-c2ccc3c(c2)OCCO3)on1)NCc1ccccn1 | -10.7
101 | COC1CCN(Cc2csc(C(C)C)n2)CC1 | -5.9
102 | O=C(NCCc1ccncc1)[C@H]1CC[C@@H]2[C@@H](CCN2CC2CC2)O1 | -10.8
103 | CNc1ncc(CN(C)Cc2cc(O)c3cc(C)cc(C)c3n2)cn1 | -15.9
104 | CC(C1CC1)N(C)C(=O)c1ccc(-n2ncc(C#N)c2N)cc1 (centres undefined) | -6.01
105 | CN(CC(=O)N1CCc2[nH]c3ccc(F)cc3c2C1)CC1OCCO1 | 3.34
106 | Cc1nc2ccccc2c(=O)n1CCC(=O)N1CCSCC1 | -4.52
107 | CCc1noc(CN(CCS(C)(=O)=O)C(C)(C)C)n1 | 20.2
108 | COc1ccc(CN[C@H]2CC[C@@]3(CCC(=O)N3)CC2)cc1 | -6.23
109 | CN(Cc1ccco1)C(=O)CN1CCc2ccccc2C1 | -7.16
110 | COc1cc(-c2nc(C3CC3)nn2-c2ccnc(C)c2)nc(OC)n1 | -14.3
111 | Cc1cc(C)cc(N2CCN(C(=O)C3CN(C)C(=O)N3)CC2=O)c1 (centres undefined) | -9.45
112 | COCCc1noc(CN2CCCC2c2c(C)nn(C)c2Cl)n1 (centres undefined) | -0.0583
113 | CCN(CC1CCCO1)C(=O)Nc1ccc(OC)c(C)c1 (centres undefined) | -8.02
114 | Cc1noc(C2CCC3(CCN(C(=O)c4cnccn4)CC3)O2)n1 (centres undefined) | 3.99
